The values below come from patent US9066866B2, “Direct cellular energy delivery system” (University of Louisville Research Foundation, Inc., priority 2002, dated 2015).

Molecules are shown by their SMILES.

The subject of one experiment is HUVEC. In words: Vesicle absorption and release of 3H-ATP into HUVEC. Type of experiment: cell-based, human. The protocol: To determine if ATP is also introduced into cells like carboxyfluorescein, vesicle absorption and release of ATP into HUVEC was followed using the ^3H-ATP-containing vesicles of Example 2. The vesicles were incubated with HUVEC for 5, 10, 15, 30, 45, 60, 90, 120, or 240 minutes. The result shown in FIG. 1 is the partition coefficient of ATP inside the cells after 1 hour. […] When the cells were washed repeatedly there was a significant change in the radioactivity of the cells.

For the next experiment, the system named is amputated hind legs. In words: Limb replantation after perfusion of amputated hind legs. Type of experiment: in vivo, rats. Conditions: rat.

Experimental for amputated hind legs: Hind legs were amputated from rats, and the major feed arteries for the severed limbs were cannulated for infusion of ATP-SUV, (1 mM ATP) solution. The limbs were perfused with ATP-SUV or control solutions (see Table 1) every 3 hours, or as deemed necessary by the change in tissue ATP levels. The arterial pressure of the limbs was monitored during infusion to decrease the chance of flow-induced injury, and to monitor the overall preservation of the severed limbs (higher perfusion pressures may indicate limb morbidity). Following the preservation period, the limbs were flushed with Ringers to remove traces of ATP-SUV. The limbs were then surgically reattached, and external indices of limb function after anastomoses were evaluated (limb color, evidence of microthrombi, coagulation, limb temperature). The animals prior to and following replantation received heparin to prevent hemostasis. In addition, animals were placed on antibiotic therapy to reduce infection. Control limbs were perfused with vehicle only, vehicle and ATP only, or vehicle and SUVs only.

Consider `Nc1ncnc2c1ncn2[C@@H]1O[C@H](COP(=O)(O)OP(=O)(O)OP(=O)(O)O)[C@@H](O)[C@H]1O` [^3H-ATP only, adenosine-5′-triphosphate (ATP)], for which, in the experiment with HUVEC (3H-ATP), the “change in radioactivity of the cells after repeated washes” value was “complete loss of radioactivity”. In addition, in the experiment with HUVEC (after 1 hour, FIG. 1), the “partition coefficient of ATP inside the cells (percent incorporation, rank order)” value is reported as “then ^3H-ATP only, without vesicles”. Moreover, the “mode of cell entry concluded” value with HUVEC (from wash and fusion data) is “does not enter cells”. Further, the Limb outcome in the experiment on amputated hind legs is “necrosis”.
